According to PubChem BioAssay (NCI):
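Values below derive from 48-hour exposures of cells grown in 96-well plates, with endpoints linearly interpolated between the two concentrations bracketing the appropriate inhibition level. Here, GI50 denotes the concentration required for 50% inhibition of growth. TGI marks complete inhibition of growth.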

Key:
Assay in all cases: inhibition of tumour cell growth, NCI panel, 48 h
RPMI-8226 leukemia = tested on: RPMI-8226 leukemia
A549 NSCLC = tested on: A549 NSCLC
BT-549 breast = tested on: BT-549 breast
NCI-H460 lung = tested on: NCI-H460 lung
SF-295 CNS = tested on: SF-295 CNS
NCI-H522 lung = tested on: NCI-H522 lung
PC-3 prostate = tested on: PC-3 prostate
SK-OV-3 ovarian = tested on: SK-OV-3 ovarian
HL-60(TB) leukemia = tested on: HL-60(TB) leukemia
SNB-75 CNS = tested on: SNB-75 CNS

Row | SMILES | TGI (RPMI-8226 leukemia) [µM] | TGI (A549 NSCLC) [µM] | TGI (BT-549 breast) [µM] | TGI (NCI-H460 lung) [µM] | TGI (SF-295 CNS) [µM] | TGI (NCI-H522 lung) [µM] | TGI (PC-3 prostate) [µM] | TGI (SK-OV-3 ovarian) [µM] | TGI (HL-60(TB) leukemia) [µM] | GI50 (RPMI-8226 leukemia) [µM] | GI50 (A549 NSCLC) [µM] | GI50 (BT-549 breast) [µM] | GI50 (NCI-H460 lung) [µM] | GI50 (SF-295 CNS) [µM] | GI50 (SNB-75 CNS) [µM] | TGI (SNB-75 CNS) [µM] | GI50 (NCI-H522 lung) [µM] | GI50 (PC-3 prostate) [µM] | GI50 (SK-OV-3 ovarian) [µM] | GI50 (HL-60(TB) leukemia) [µM]
1 | Cc1[nH]c2ccccc2c1-c1cc(-c2cc(-c3c(C)[nH]c4ccccc34)nc(N)n2)nc(N)n1 | > 100 | > 100 | > 100 | > 100 | > 100 | > 100 | > 100 | > 100 | > 100 | – | – | – | – | – | – | – | – | – | – | –
2 | C=C1c2[nH]c3ccccc3c2C2C(CC)C1CCN2C (stereo not given) | 88.8 | > 100 | > 100 | > 100 | > 100 | > 100 | > 100 | > 100 | > 100 | – | – | – | – | – | – | – | – | – | – | –
3 | Nc1nc2cc3ccc(C4CC(O)C(CO)O4)cc3cc2c(=O)[nH]1 (stereo not given) | > 100 | > 100 | > 100 | > 100 | > 100 | > 100 | > 100 | > 100 | – | > 100 | > 100 | > 100 | > 100 | > 100 | 49.6 | > 100 | > 100 | > 100 | > 100 | –
4 | CC(=O)C1C(=O)NC(=O)C1=O (stereo not given) | > 100 | – | – | > 100 | > 100 | > 100 | – | > 100 | – | – | – | – | – | – | – | > 100 | – | – | – | –
5 | O=Cc1ccc(-c2ccc(-c3nc4ccccc4o3)cc2)s1 | – | > 100 | 52.6 | 85.3 | 87.8 | > 100 | > 100 | 99.5 | > 100 | – | 70.5 | 18 | 23.7 | 24.2 | – | – | 47.3 | > 100 | 30.8 | 12.7
6 | CC(=O)[O-].[Mn+3].[O-]c1ccccc1C=NCCN=Cc1ccccc1[O-] | – | > 100 | – | > 100 | > 100 | > 100 | – | – | > 100 | – | > 100 | – | 44.4 | > 100 | > 100 | > 100 | 16 | – | – | 19.2
7 | CN(C)CCNC(=O)c1cccc2c(Nc3ccc(S(N)(=O)=O)cc3)c3ccccc3nc12 | 77.2 | 7.29 | – | 1.96 | 8.02 | 2.8 | – | 3.59 | – | – | – | – | – | – | – | 4.48 | – | – | – | –
8 | COC(=O)CCC(=O)Nc1cc(Cl)ccc1Cl | > 100 | > 100 | – | > 100 | > 100 | > 100 | – | > 100 | > 100 | – | – | – | – | – | – | – | – | – | – | –
9 | CN(/N=C/c1cccc2cccnc12)c1ccc([N+](=O)[O-])cc1 | > 100 | > 100 | – | > 100 | > 100 | – | – | > 100 | > 100 | – | – | – | – | – | – | > 100 | – | – | – | –
10 | CCN1C2=NCCN2S(=O)(=O)c2ccccc21 | – | > 100 | > 100 | > 100 | > 100 | > 100 | > 100 | > 100 | > 100 | – | – | – | – | – | – | – | – | – | – | –
11 | O/N=C1/C(=C/c2ccc(Oc3ccccc3)cc2)CCCC1C(NO)c1ccc(Oc2ccccc2)cc1 (stereo not given) | 76.1 | > 100 | – | > 100 | > 100 | – | – | > 100 | 25.6 | – | – | – | – | – | – | > 100 | – | – | – | –
12 | COc1ccc(Cc2cc3c(cc2OCC(=O)O)OCO3)cc1 | > 100 | > 100 | – | > 100 | > 100 | > 100 | – | > 100 | > 100 | – | – | – | – | – | – | – | – | – | – | –
13 | Cc1cc2cn3c4ccc(O)cc4[nH]c(=O)c3c2cc1C | 3.28 | 1.04 | – | – | 0.221 | 0.0697 | 1.7 | 0.298 | – | 0.252 | 0.0308 | – | – | 0.0356 | – | – | 0.0164 | 0.0542 | 0.0293 | –
14 | CCOC(=O)C(=O)Nc1ccc(Cl)cc1C | > 100 | > 100 | – | > 100 | > 100 | > 100 | – | > 100 | > 100 | – | – | – | – | – | – | > 100 | – | – | – | –
15 | Cc1nc(-c2ccccc2)cc2c1c(=O)oc1ccccc12 | > 100 | > 100 | – | > 100 | > 100 | > 100 | – | > 100 | > 100 | – | – | – | – | – | – | > 100 | – | – | – | –
16 | O=c1cc(-c2ccccc2)oc2cc(O)cc(O)c12 | 41.7 | > 100 | – | 40.2 | 37.6 | 33 | – | 67 | 48.3 | – | – | – | – | – | – | 31.2 | – | – | – | –
17 | O=C1c2ccccc2NC1(c1ccccc1)c1c(-c2ccccc2)[nH]c2ccccc12 (stereo not given) | > 100 | > 100 | – | > 100 | > 100 | – | – | > 100 | 30.3 | – | – | – | – | – | – | > 100 | – | – | – | –
18 | COc1cc2c3c(n(CCCNCCCNCCCNCCCN)c(=O)c2cc1OC)-c1cc2c(cc1C3=O)OCO2 | – | 11.7 | 6.44 | 4.25 | 3.97 | > 100 | 14.8 | > 100 | 3.3 | – | 2.2 | 2.2 | 1.32 | 1.38 | 2.98 | 13.6 | 3.61 | 3.31 | 8.52 | 1.36
19 | CN1C(c2ccccc2)CS(=O)(=O)CS1(=O)=O (stereo not given) | – | > 100 | – | > 100 | > 100 | – | – | > 100 | – | – | – | – | – | – | – | > 100 | – | – | – | –
20 | CCCCCCCCCCCCCCCC[N+](C)(CCO)Cc1cnc[nH]1 (stereo not given) | – | 5.57 | 7.05 | – | 4.01 | – | 2.37 | 5.22 | 2 | – | 1.49 | 2.52 | – | 1.18 | 1.11 | 5.86 | – | 0.441 | 1.5 | 0.39
21 | O=S(=O)(SCc1ccccc1)C(c1ccccc1)c1ccccc1 | 85.6 | > 100 | – | > 100 | > 100 | 57.8 | – | > 100 | 77 | – | – | – | – | – | – | > 100 | – | – | – | –
22 | COC1=CC23CCCN2CCc2cc4c(cc2C3C1O)OCO4 (stereo not given) | – | > 100 | > 100 | > 100 | > 100 | > 100 | > 100 | > 100 | 83.8 | – | – | – | – | – | – | > 100 | – | – | – | –
